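1) Cells in 96-well plates. 2) Compound, 48 h, 5 concentrations. 3) Linear interpolation between surrounding doses. 4) Unreached endpoint = highest concentration. At the TGI there is no net growth.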
Columns and labels:
Test in all cases: NCI tumour cell line growth inhibition, 48 h
MDA-N = system: MDA-N
HCT-116 colon = system: HCT-116 colon
UACC-62 melanoma = system: UACC-62 melanoma
SK-MEL-28 melanoma = system: SK-MEL-28 melanoma
OVCAR-4 ovarian = system: OVCAR-4 ovarian
RPMI-8226 leukemia = system: RPMI-8226 leukemia
BT-549 breast = system: BT-549 breast
IGROV1 ovarian = system: IGROV1 ovarian
DU-145 prostate = system: DU-145 prostate
M14 melanoma = system: M14 melanoma
SF-268 CNS = system: SF-268 CNS
MCF7 breast = system: MCF7 breast
SF-295 CNS = system: SF-295 CNS
MDA-MB-231 breast = system: MDA-MB-231 breast
ACHN renal = system: ACHN renal
OVCAR-5 ovarian = system: OVCAR-5 ovarian
COLO 205 colon = system: COLO 205 colon
OVCAR-3 ovarian = system: OVCAR-3 ovarian
SW-620 colon = system: SW-620 colon
RXF 393 renal = system: RXF 393 renal
HS 578T breast = system: HS 578T breast
SK-OV-3 ovarian = system: SK-OV-3 ovarian
SF-539 CNS = system: SF-539 CNS
NCI-H226 lung = system: NCI-H226 lung
KM12 colon = system: KM12 colon
SNB-19 CNS = system: SNB-19 CNS
NCI-H23 lung = system: NCI-H23 lung
NCI-H460 lung = system: NCI-H460 lung
SNB-75 CNS = system: SNB-75 CNS
K-562 leukemia = system: K-562 leukemia
HCC-2998 colon = system: HCC-2998 colon
CCRF-CEM leukemia = system: CCRF-CEM leukemia
MALME-3M melanoma = system: MALME-3M melanoma
NCI-H522 lung = system: NCI-H522 lung
CAKI-1 renal = system: CAKI-1 renal
NCI/ADR-RES ovarian = system: NCI/ADR-RES ovarian
UACC-257 melanoma = system: UACC-257 melanoma
PC-3 prostate = system: PC-3 prostate
HL-60(TB) leukemia = system: HL-60(TB) leukemia
786-0 renal = system: 786-0 renal
MOLT-4 leukemia = system: MOLT-4 leukemia
OVCAR-8 ovarian = system: OVCAR-8 ovarian
TK-10 renal = system: TK-10 renal
HCT-15 colon = system: HCT-15 colon
EKVX NSCLC = system: EKVX NSCLC
SK-MEL-2 melanoma = system: SK-MEL-2 melanoma
U251 CNS = system: U251 CNS
A549 NSCLC = system: A549 NSCLC
SN12C renal = system: SN12C renal
HOP-62 NSCLC = system: HOP-62 NSCLC
LOX IMVI melanoma = system: LOX IMVI melanoma
HT29 colon = system: HT29 colon
UO-31 renal = system: UO-31 renal
SK-MEL-5 melanoma = system: SK-MEL-5 melanoma
T-47D breast = system: T-47D breast
MDA-MB-435 = system: MDA-MB-435
HOP-92 NSCLC = system: HOP-92 NSCLC

With `O=C1CCCC(=O)N1n1c(Cc2ccc(Cl)cc2)n[nH]c1=O` the TGI (MDA-N) was over 100 µM, the TGI (HCT-116 colon) was over 100 µM and the TGI (UACC-62 melanoma) was over 100 µM. The TGI (SK-MEL-28 melanoma) was over 100 µM, the TGI (OVCAR-4 ovarian) was over 100 µM and the TGI (RPMI-8226 leukemia) was over 100 µM. For the same molecule, the TGI (BT-549 breast) was over 100 µM, the TGI (IGROV1 ovarian) was over 100 µM and the TGI (DU-145 prostate) was over 100 µM. For the same molecule, the TGI (M14 melanoma) was over 100 µM, the TGI (SF-268 CNS) was over 100 µM and the TGI (MCF7 breast) was over 100 µM. The TGI (SF-295 CNS) was over 100 µM, the TGI (MDA-MB-231 breast) was over 100 µM and the TGI (ACHN renal) was over 100 µM. It also gave a TGI (OVCAR-5 ovarian) of over 100 µM, a TGI (COLO 205 colon) of over 100 µM and a TGI (OVCAR-3 ovarian) of over 100 µM. For the same molecule, the TGI (SW-620 colon) was over 100 µM, the TGI (RXF 393 renal) was over 100 µM and the TGI (HS 578T breast) was over 100 µM. The TGI (SK-OV-3 ovarian) was over 100 µM, the TGI (SF-539 CNS) was over 100 µM and the TGI (NCI-H226 lung) was over 100 µM. For the same molecule, the TGI (KM12 colon) was over 100 µM, the TGI (SNB-19 CNS) was over 100 µM and the TGI (NCI-H23 lung) was over 100 µM. For the same molecule, the TGI (NCI-H460 lung) was over 100 µM, the TGI (SNB-75 CNS) was over 100 µM and the TGI (K-562 leukemia) was over 100 µM. It also gave a TGI (HCC-2998 colon) of over 100 µM, a TGI (CCRF-CEM leukemia) of over 100 µM and a TGI (MALME-3M melanoma) of over 100 µM. For the same molecule, the TGI (NCI-H522 lung) was over 100 µM, the TGI (CAKI-1 renal) was over 100 µM and the TGI (NCI/ADR-RES ovarian) was over 100 µM. It also gave a TGI (UACC-257 melanoma) of over 100 µM, a TGI (PC-3 prostate) of over 100 µM and a TGI (HL-60(TB) leukemia) of over 100 µM. The TGI (786-0 renal) was over 100 µM, the TGI (MOLT-4 leukemia) was over 100 µM and the TGI (OVCAR-8 ovarian) was over 100 µM. It also gave a TGI (TK-10 renal) of over 100 µM, a TGI (HCT-15 colon) of over 100 µM and a TGI (EKVX NSCLC) of over 100 µM. The TGI (SK-MEL-2 melanoma) was over 100 µM, the TGI (U251 CNS) was over 100 µM and the TGI (A549 NSCLC) was over 100 µM. For the same molecule, the TGI (SN12C renal) was over 100 µM, the TGI (HOP-62 NSCLC) was over 100 µM and the TGI (LOX IMVI melanoma) was over 100 µM. It also gave a TGI (HT29 colon) of over 100 µM, a TGI (UO-31 renal) of over 100 µM and a TGI (SK-MEL-5 melanoma) of over 100 µM. The TGI (T-47D breast) was over 100 µM and the TGI (MDA-MB-435) was over 100 µM.
`O=C1/C(=C/c2ccc3c(c2)OCO3)Sc2scc(-c3ccc(O)c(O)c3)[n+]21` gave a TGI (MDA-N) of 9.81 µM, a TGI (HCT-116 colon) of 6.29 µM and a TGI (UACC-62 melanoma) of 8.28 µM. The TGI (SK-MEL-28 melanoma) was over 100 µM, the TGI (OVCAR-4 ovarian) was 14 µM and the TGI (RPMI-8226 leukemia) was 4.42 µM. It also gave a TGI (BT-549 breast) of 6.13 µM, a TGI (IGROV1 ovarian) of 8.09 µM and a TGI (DU-145 prostate) of 13.1 µM. For the same molecule, the TGI (M14 melanoma) was 13.3 µM, the TGI (SF-268 CNS) was 97.2 µM and the TGI (MCF7 breast) was over 35.2 µM. It also gave a TGI (SF-295 CNS) of 25.5 µM, a TGI (MDA-MB-231 breast) of over 28.8 µM and a TGI (ACHN renal) of 3.94 µM. It also gave a TGI (OVCAR-5 ovarian) of 30.6 µM, a TGI (COLO 205 colon) of over 19.7 µM and a TGI (OVCAR-3 ovarian) of 15.3 µM. For the same molecule, the TGI (HS 578T breast) was 72.6 µM, the TGI (SK-OV-3 ovarian) was 17.5 µM and the TGI (SF-539 CNS) was 7.84 µM. The TGI (NCI-H226 lung) was over 100 µM, the TGI (KM12 colon) was 13.1 µM and the TGI (SNB-19 CNS) was 36.2 µM. The TGI (NCI-H23 lung) was 9.29 µM, the TGI (NCI-H460 lung) was 12.8 µM and the TGI (SNB-75 CNS) was 5.54 µM. The TGI (K-562 leukemia) was 2.93 µM, the TGI (HCC-2998 colon) was 3.64 µM and the TGI (CAKI-1 renal) was 2.9 µM. For the same molecule, the TGI (NCI/ADR-RES ovarian) was 4.48 µM, the TGI (UACC-257 melanoma) was 9.35 µM and the TGI (PC-3 prostate) was 16.2 µM. It also gave a TGI (786-0 renal) of 5.48 µM, a TGI (MOLT-4 leukemia) of over 20.1 µM and a TGI (OVCAR-8 ovarian) of 9.94 µM. The TGI (TK-10 renal) was 3.71 µM, the TGI (HCT-15 colon) was 3.61 µM and the TGI (EKVX NSCLC) was 8.25 µM. The TGI (SK-MEL-2 melanoma) was 24.8 µM, the TGI (U251 CNS) was 37.9 µM and the TGI (A549 NSCLC) was 46.3 µM. The TGI (SN12C renal) was 4.7 µM, the TGI (HOP-62 NSCLC) was 41.6 µM and the TGI (HT29 colon) was 18.6 µM. The TGI (UO-31 renal) was 6.08 µM, the TGI (SK-MEL-5 melanoma) was over 22.4 µM and the TGI (T-47D breast) was over 100 µM. It also gave a TGI (MDA-MB-435) of 13.5 µM and a TGI (HOP-92 NSCLC) of 7.58 µM.
